Data published in patent US20120022116A1, “COMPOSITIONS AND METHODS FOR THE TREATMENT OF PATHOLOGICAL CONDITION(S) RELATED TO GPR35 AND/OR GPR35-HERG COMPLEX” (priority 2010, published 2012).

Experiments:
[1] = tested on: hERG channel; assay: Cross-desensitization DMR assay against hERG activator mallotoxin-induced DMR in HT29 cells; conditions: HT29 cells pretreated with compound, then hERG activator mallotoxin
[2] = tested on: GPR35; assay: DMR desensitization / antagonism mode against GPR35 agonist-induced DMR in HT29 cells; type: cell-based, human; conditions: HT29 cells pretreated with compound, then GPR35 agonist
[3] = molecular target: hERG channel (Homo sapiens, UniProt Q12809); assay: Automated patch clamp recording of hERG tail current (IonWorks); conditions: hERG tail current ratio post/pre-compound, 50 uM
hERG channel (Homo sapiens, UniProt Q12809), sequence (Q12809 whole entry): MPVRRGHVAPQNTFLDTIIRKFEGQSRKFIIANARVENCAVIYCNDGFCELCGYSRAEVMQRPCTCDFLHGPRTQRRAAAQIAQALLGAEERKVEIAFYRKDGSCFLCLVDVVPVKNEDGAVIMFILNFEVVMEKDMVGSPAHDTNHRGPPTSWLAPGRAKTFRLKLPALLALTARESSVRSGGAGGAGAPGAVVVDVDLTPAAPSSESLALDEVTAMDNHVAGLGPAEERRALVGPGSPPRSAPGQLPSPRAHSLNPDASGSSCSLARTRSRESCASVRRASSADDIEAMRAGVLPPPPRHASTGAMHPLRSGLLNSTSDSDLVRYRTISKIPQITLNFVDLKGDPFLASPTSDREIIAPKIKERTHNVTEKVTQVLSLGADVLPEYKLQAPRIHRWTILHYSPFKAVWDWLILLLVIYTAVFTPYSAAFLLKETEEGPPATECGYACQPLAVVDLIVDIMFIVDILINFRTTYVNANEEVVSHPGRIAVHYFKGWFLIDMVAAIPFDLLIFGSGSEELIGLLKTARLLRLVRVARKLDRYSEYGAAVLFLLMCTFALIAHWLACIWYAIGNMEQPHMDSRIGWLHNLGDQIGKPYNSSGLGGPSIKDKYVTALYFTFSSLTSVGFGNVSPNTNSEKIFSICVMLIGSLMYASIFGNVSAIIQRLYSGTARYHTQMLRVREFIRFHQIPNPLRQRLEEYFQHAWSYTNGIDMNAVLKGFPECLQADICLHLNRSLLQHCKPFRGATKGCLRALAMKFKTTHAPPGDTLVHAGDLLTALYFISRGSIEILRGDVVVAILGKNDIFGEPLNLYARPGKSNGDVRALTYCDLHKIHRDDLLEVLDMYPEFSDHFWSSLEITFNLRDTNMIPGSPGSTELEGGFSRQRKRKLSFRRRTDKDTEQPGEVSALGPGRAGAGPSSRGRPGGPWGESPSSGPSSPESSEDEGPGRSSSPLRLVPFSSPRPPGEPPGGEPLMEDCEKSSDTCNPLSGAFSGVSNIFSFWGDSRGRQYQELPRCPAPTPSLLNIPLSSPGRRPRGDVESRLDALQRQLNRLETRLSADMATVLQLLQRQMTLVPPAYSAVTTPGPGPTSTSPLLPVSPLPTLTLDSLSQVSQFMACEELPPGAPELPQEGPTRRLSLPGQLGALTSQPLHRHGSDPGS

[4] = molecular target: T1, GPR35 (Homo sapiens, UniProt Q9HC97); assay: Ca2+ mobilization assay (Fluo-4) in HEK-GPR35-Gqo5 cells; type: cell-based; conditions: for Ca2+ moblization (HEK-GPR35-Gqo5): HEK293 cells co-expressing GPR35 and Gqo5, Fluo-4, compounds 10 μM
T1 construct: myc; expressed in transfected cells; host or cells: HEK293, transient co-transfection (Lipofectamine LTX)
T1 sequence (Q9HC97 whole entry): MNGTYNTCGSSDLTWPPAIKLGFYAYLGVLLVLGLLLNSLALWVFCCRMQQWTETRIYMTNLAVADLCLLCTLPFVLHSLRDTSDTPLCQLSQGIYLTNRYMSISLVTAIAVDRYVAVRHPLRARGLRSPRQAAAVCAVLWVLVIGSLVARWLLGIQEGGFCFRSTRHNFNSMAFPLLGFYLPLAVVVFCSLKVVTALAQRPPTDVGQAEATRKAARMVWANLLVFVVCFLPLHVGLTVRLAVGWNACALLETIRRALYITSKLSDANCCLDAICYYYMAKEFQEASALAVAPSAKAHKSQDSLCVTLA

Row | Compound | Desenstization to hERG activator [1] | Desenstization to GPR35 agonist [2] | Electrophysiology (HEK-hERG) [3] | Ca2+ moblization (HEK-GPR35-Gqo5) [4] | Ca2+ mobilization signal in cells co-expressing GPR35 and Gqo5 ([4]; engineered HEK293, 10 μM)
1 | O=C(O)c1ccccc1Nc1cccc(C(F)(F)F)c1 [Flufenamic acid] | desenstized | desenstized | activator | active | active
2 | N#CC(C#N)=C(N)/C(C#N)=C/c1cc(O)c(O)c(O)c1 [Tyrphostin 51] | partially desenstized | desenstized | inactive | – | –
3 | O=C([O-])c1ccc(-c2ccc(/C=C/c3ccc(N(CCO)CCO)cc3)s2)s1.[Na+] [Compound 29] | partially desenstized | desenstized | activator | active | –
4 | N#C/C(=C\c1ccc(O)c(O)c1)C(N)=S [Tyrphostin 47] | partially desenstized | desenstized | activator | – | –
